Patent publication US7312248B2, “Control of parasites in animals by the use of novel trifluoromethanesulfonanilide oxime ether derivatives” (Schering-Plough Animal Health Corporation, priority 2004, dated 2007)
Like-named read-outs stand apart in the source and are kept apart here.

Tests used:
Haemonchus contortus = Haemonchus contortus larvacidal (larval development) assay; assay type: in vivo; conditions: 144 h, read-out: Haemonchus contortus LD99
Protocol: a) Haemonchus Contortus Larvacidal Assay:
The effect of compounds on larval development was determined in the assay described by Gill et al. (1995, International Journal of Parasitology 25:463-470). Briefly, in this assay, nematode eggs were applied to the surface of an agar matrix containing the test compound and then allowed to develop through to the L3, infective stage (6 days). The wells for each dilution of every compound (from highest to lowest concentration) were inspected to determine the well number corresponding to the lowest concentration at which development was inhibited in 99% of the nematode larvae present (LD99). Because well numbers correspond to a two-fold serial dilution of each compound, a titre (dilution factor) is generated as 2^n−1, where n is the well number. By dividing the highest concentration tested by the titre an LD99 value can be obtained, representing the concentration required to inhibit development in 99% of the nematode larvae present. The compounds supplied as solid and viscous liquids were dissolved in DMSO. Twelve serial one-half dilutions in DMSO solution were prepared from the stock solution, each of which was then diluted ⅕ with water. Aliquots (10 μl) of each dilution were transferred to the bioassay plates to give a final concentration range of 0.024 to 50 μg/ml.

[1] = test system: cat flea (Ctenocephalides felis); test: whole plant or invertebrate; assay type: in vivo; conditions: Ctenocephalides felis
Protocol: b) Ctenocephalides felis Adulticide Assay: C. felis Single Dose Screen
Mortality of fleas was the primary endpoint in the assay. Fleas were considered dead if they didn't move or were on their sides and unable to walk or right themselves. […] The concentration chosen (1.26 μg/cm^2) was higher than that known to kill 90% of cat fleas (LC90) using the reference compound, permethrin.
The test species was the cat flea (Ctenocephalides felis). The strain used was obtained from external suppliers as pupae and held in the laboratory under testing conditions until the adults had emerged. Fifteen (15) fleas were used in a minimum of four replicates against a single concentration level (approximately 60 fleas). The insects were selected to be in the adult life stage, aged between 3 and 7 days post emergence.
The compounds to be tested were supplied as solids and were prepared in acetone as described below prior to testing. Samples were stored in a refrigerator (5±1° C.) unless otherwise specified.
During the mortality testing, the temperature was maintained at 25±1° C. Humidity was maintained at 75±5%. The base (area=159 mm^2) of a 100 mL glass Erlenmeyer (conical) flask provided the treatment surface. Flasks were pretreated with Coatasil™ glass treatment to maximise bio-availability of test compounds by preventing them from binding to glass the surface. The base of the 100 mL Erlenmeyer flask was treated with 0.5 mL of test sample in acetone and gently swirled. This volume was sufficient to cover the base of the flask. Flasks were left to dry for 24 hours before flea exposure.
Adult cat fleas were placed into a sorting chamber, which allowed fleas to jump into the Erlenmeyer flasks. Fifteen (15) adult cat fleas were collected in each flask. The top of the flasks were then covered in Parafilm™ and small holes were made to allow gas exchange. A 0.5 mL volume of acetone as a solvent control was applied to the base of an Erlenmeyer flask and the testing proceeded in the same manner described above. Cat fleas in the treatment containers were held under testing conditions for 8, 24 and/or 48 hours. Mortality was recorded at 8, 24, 8 and 24, or 24 and 48 hours. Pooled 8, 24, 8 and 24, and 24 and 48 hour mortality data were converted to percentages and are summarized by Tables 14, 14A and 14B, below.

[2] = 8 h, read-out: C. felis Mortality (%) 8 h, 8 h, Laboratory 1 A data
[3] = 24 h, read-out: C. felis Mortality (%) 24 h, 24 h, Laboratory 1 A data

| Structure (SMILES) | IC99 (Haemonchus contortus) | mortality at 1.26 µg/cm2, 1.26 µg/cm2 [1, 2] | also measured |
| --- | --- | --- | --- |
| C/C(=N\OCc1ccc(C(F)(F)F)cc1C(F)(F)F)c1cc(Cl)ccc1NS(=O)(=O)C(F)(F)F [Compound 2, N-{2-[1-(2,4-bistrifluoromethylbenzyloxyimino)ethyl]-4-chlorophenyl}trifluoromethanesulfonamide] | 0.1 µg/mL | 2% |  |
| CC/C(=N\OCc1ccc(C(C)(C)C)cc1)c1cc(Cl)ccc1NS(=O)(=O)C(F)(F)F [Compound 5] | 3.3 µg/mL | 8% |  |
| C/C(=N\OCc1ccc(C(F)(F)F)cc1)c1cc(Cl)ccc1NS(=O)(=O)C(F)(F)F [Compound 14] | 0.9 µg/mL | 2% |  |
| C/C(=N\OCc1ccc(Cl)cc1)c1cc(Cl)ccc1NS(=O)(=O)C(F)(F)F [Compound 16] | 1.3 µg/mL |  | mortality at 1.26 µg/cm2, 1.26 µg/cm2 ([1]; 8 h, read-out: C. felis Mortality (%) 8 h, 8 h, Laboratory 2 B data): 90%; mortality at 1.26 µg/cm2, 1.26 µg/cm2 ([1]; 24 h, read-out: C. felis Mortality (%) 24 h, 24 h, Laboratory 2 B data): 100% |
| C/C(=N\OCc1ccc(Cl)cc1Cl)c1cc(Cl)ccc1NS(=O)(=O)C(F)(F)F [Compound 21] | 0.7 µg/mL | 5% |  |
| C/C(=N\OCC=C(Cl)Cl)c1cc(Cl)ccc1NS(=O)(=O)C(F)(F)F [Compound 38] | 0.9 µg/mL | 8% |  |
| O=S(=O)(Nc1ccc(Cl)cc1/C(=N/OCc1ccc(Cl)cc1Cl)c1ccccc1)C(F)(F)F [Compound 61] | 1.7 µg/mL | 17% |  |
| O=S(=O)(Nc1ccc(Cl)cc1/C=N/OCc1ccc(C(F)(F)F)cc1C(F)(F)F)C(F)(F)F [Compound 65, N-{2-[(2,4-bistrifluoromethylbenzyloxyimino)methyl]-4-chlorophenyl}trifluoromethanesulfonamide] | 0.3 µg/mL | 10% |  |
| O=S(=O)(Nc1ccc(Cl)cc1/C=N/OCc1ccc(Cl)cc1Cl)C(F)(F)F [Compound 67] | 0.9 µg/mL | 12% |  |
| O=S(=O)(Nc1ccc(Cl)cc1/C(=N/OCc1ccccc1C(F)(F)F)c1ccccc1)C(F)(F)F [Compound 69] | 2.7 µg/mL |  |  |
| O=S(=O)(Nc1ccc(Cl)cc1/C=N/OCc1ccc(C(F)(F)F)cc1)C(F)(F)F [Compound 70] | 3 µg/mL |  |  |
| O=S(=O)(Nc1ccc(Cl)cc1/C(=N/OCc1cccc(Cl)c1)c1ccccc1)C(F)(F)F [Compound 71] | 3 µg/mL |  |  |
| C/C(=N\OCc1ccc(C#N)cc1)c1cc(Cl)ccc1NS(=O)(=O)C(F)(F)F [Compound 73] | 5 µg/mL | 1% |  |
| CC/C(=N\OCc1c(F)c(F)c(F)c(F)c1F)c1cc(Cl)ccc1NS(=O)(=O)C(F)(F)F [Compound 77] | 2.5 µg/mL | 3% |  |
| O=S(=O)(Nc1ccc(Cl)cc1/C(=N/OCc1ccc(C(F)(F)F)cc1C(F)(F)F)c1ccccc1)C(F)(F)F [Compound 78] | 1.8 µg/mL | 21% |  |
| N#Cc1ccc(CO/N=C(\c2ccccc2)c2cc(Cl)ccc2NS(=O)(=O)C(F)(F)F)cc1 [Compound 80] | 3.5 µg/mL |  |  |
| O=S(=O)(Nc1ccc(Cl)cc1/C=N/OCc1ccc(Cl)cc1)C(F)(F)F [Compound 81] | 1.7 µg/mL |  |  |
| O=S(=O)(Nc1ccc(Cl)cc1/C(=N/OCc1ccc(F)cc1F)c1ccccc1)C(F)(F)F [Compound 82] | 3.3 µg/mL |  |  |
| CC/C(=N\OCc1ccc(F)cc1F)c1cc(Cl)ccc1NS(=O)(=O)C(F)(F)F [Compound 84] | 3.3 µg/mL | 95% |  |
| CC/C(=N\OC/C=C/c1ccccc1)c1cc(Cl)ccc1NS(=O)(=O)C(F)(F)F [Compound 85] | 1.6 µg/mL | 6% |  |
| CC/C(=N\OCc1ccc(F)cc1)c1cc(Cl)ccc1NS(=O)(=O)C(F)(F)F [Compound 86] | 3.5 µg/mL |  |  |
| O=S(=O)(Nc1ccc(Cl)cc1/C(=N/OCc1ccc(Cl)c(Cl)c1)c1ccccc1)C(F)(F)F [Compound 87, N-{4-chloro-2-[(3,4-dichlorobenzyloxyimino)phenylmethyl]phenyl}trifluoromethanesulfonamide] | 1.3 µg/mL | 5% |  |
| COc1ccc(CO/N=C(\c2ccccc2)c2cc(Cl)ccc2NS(=O)(=O)C(F)(F)F)cc1 [Compound 88] | 15 µg/mL |  |  |

| Structure (SMILES) | IC99 (Haemonchus contortus) | mortality at 1.26 µg/cm2, 1.26 µg/cm2 [1, 2] | also measured |
| --- | --- | --- | --- |
| CC/C(=N\OCc1ccc(C#N)cc1)c1cc(Cl)ccc1NS(=O)(=O)C(F)(F)F [Compound 91] | 13 µg/mL |  | mortality at 1.26 µg/cm2, 1.26 µg/cm2 [1, 3]: 67% |
| CCC/C(=N\OCc1ccc(C(F)(F)F)cc1)c1cc(Cl)ccc1NS(=O)(=O)C(F)(F)F [Compound 92] | 1.6 µg/mL | 36% |  |
| CC/C(=N\OCc1ccc(-c2ccccc2)cc1)c1cc(Cl)ccc1NS(=O)(=O)C(F)(F)F [Compound 94] | 7.5 µg/mL |  |  |
| O=S(=O)(Nc1ccc(Cl)cc1/C=N/OCc1cccc(Cl)c1Cl)C(F)(F)F [Compound 95] | 0.8 µg/mL |  |  |
| O=S(=O)(Nc1ccc(Cl)cc1/C=N/OCc1ccc(Br)cc1)C(F)(F)F [Compound 96] | 0.7 µg/mL |  | mortality at 1.26 µg/cm2, 1.26 µg/cm2 [1, 3]: 21% |
| O=S(=O)(Nc1ccc(Cl)cc1/C=N/OCc1ccc(Cl)c(Cl)c1)C(F)(F)F [Compound 97, N-{4-chloro-2-[(3,4-dichlorobenzyloxyimino)methyl]phenyl}trifluoromethanesulfonamide] | 0.6 µg/mL |  | mortality at 1.26 µg/cm2, 1.26 µg/cm2 [1, 3]: 42% |
| CCC/C(=N\OCc1ccc(C(F)(F)F)cc1C(F)(F)F)c1cc(Cl)ccc1NS(=O)(=O)C(F)(F)F [Compound 98] | 1.4 µg/mL | 79% |  |
| CCC/C(=N\OCc1cccc(Cl)c1Cl)c1cc(Cl)ccc1NS(=O)(=O)C(F)(F)F [Compound 99] | 2.5 µg/mL |  |  |
| CCC/C(=N\OCc1ccc(Cl)c(Cl)c1)c1cc(Cl)ccc1NS(=O)(=O)C(F)(F)F [Compound 101] | 1.9 µg/mL |  |  |
| CCC/C(=N\OCc1ccc(Br)cc1)c1cc(Cl)ccc1NS(=O)(=O)C(F)(F)F [Compound 102] | 1.9 µg/mL |  |  |
| CC/C(=N\OCCCc1ccccc1)c1cc(Cl)ccc1NS(=O)(=O)C(F)(F)F [Compound 105] | 3.5 µg/mL |  |  |
| CC/C(=N\OCc1ccccc1)c1cc(Cl)ccc1NS(=O)(=O)C(F)(F)F [Compound 107] | 10 µg/mL |  |  |
| CC(C)/C(=N\OCc1ccc(C(F)(F)F)cc1)c1cc(Cl)ccc1NS(=O)(=O)C(F)(F)F [Compound 108] | 1.3 µg/mL | 12% |  |
| CC/C(=N\OCc1cc(Br)cc(Br)c1)c1cc(Cl)ccc1NS(=O)(=O)C(F)(F)F [Compound 109] | 2.8 µg/mL | 3% |  |
| CCC/C(=N\OCCc1ccccc1)c1cc(Cl)ccc1NS(=O)(=O)C(F)(F)F [Compound 110] | 5 µg/mL |  |  |
| CCC/C(=N\OCc1ccc(Cl)cc1)c1cc(Cl)ccc1NS(=O)(=O)C(F)(F)F [Compound 112] | 3 µg/mL |  |  |
| CCC/C(=N\OCc1cc(Br)cc(Br)c1)c1cc(Cl)ccc1NS(=O)(=O)C(F)(F)F [Compound 113] | 3.8 µg/mL |  |  |
| CCC/C(=N\OCCOc1ccccc1)c1cc(Cl)ccc1NS(=O)(=O)C(F)(F)F [Compound 115] | 7.5 µg/mL |  |  |
| CC(C)/C(=N\OCc1ccc(Cl)cc1)c1cc(Cl)ccc1NS(=O)(=O)C(F)(F)F [Compound 117] | 3.5 µg/mL |  |  |
| CC(C)/C(=N\OCc1ccc(C2CCCCC2)cc1)c1cc(Cl)ccc1NS(=O)(=O)C(F)(F)F [Compound 118] | 10 µg/mL |  |  |
| CC(C)/C(=N\OCc1ccc(Cl)cc1Cl)c1cc(Cl)ccc1NS(=O)(=O)C(F)(F)F [Compound 119] | 1.2 µg/mL |  |  |
| C/C(=N\OC(C)c1ccccc1)c1cc(Cl)ccc1NS(=O)(=O)C(F)(F)F (stereo not drawn) [Compound 122] | 7 µg/mL |  |  |
| O=S(=O)(Nc1ccc(Cl)cc1-c1cc(-c2ccccc2)on1)C(F)(F)F [Compound 225] |  |  | IC99 (Haemonchus contortus; lowest concentration inhibiting development in 99% of larvae, eggs to L3, 6 days, range 0.024 to 50 μg/ml): 3.2 µg/mL |
